Reference: patent publication US9982256B2, “Random RNAi libraries, methods of generating same, and screening methods utilizing same” (The Trustees of the University of Pennsylvania, priority 2006, dated 2018)

Legend:
caspase 3 = assay: Caspase 3 enzymatic activity in book-infected FL5.12 cells; assay type: cell-based, murine; settings: correlated with the improved survival after IL-3 withdrawal
Method: (§1) 10 shRNA-encoding sequences (“books”) were retrieved by PCR, cloned back into pSiren, and sequenced. Of the 10, two were the same (books 1 and 7), indicating selective enrichment. FL5.12 cells were infected with 3 of the putative shRNA molecules separately (books 1, 3, and 8), each one assayed in 6 independent infections. The cells were subjected to 1 round of IL-3 withdrawal and recovery and subjected to a second withdrawal from IL-3. After 15 hours, cells were analyzed by flow cytometry, identifying infected cells by GFP fluorescence and dead cells by propidium iodide (PI) staining. Fractions of GFP-positive (infected), PI-negative (live) cells relative to the start of the experiment (just prior to the first IL-3 withdrawal) are depicted in FIG. 16. […] The improved survival with books 1 and 3 correlated with a decrease in caspase 3 enzymatic activity. Because the cycling of IL-3 withdrawal included a recovery segment, books 1 and 3 were tested for effects on growth rate and none were seen. The stem sequences of books 1 and 3 are as follows: […]

FL5.12 cells [1] = assay: Survival of shRNA-infected FL5.12 cells after IL-3 withdrawal (flow cytometry, GFP/PI); assay type: cell-based, murine; settings: 15 hours into second IL-3 withdrawal, after 1 round of withdrawal and recovery; 6 independent infections; p<0.0001, Student's t-test
Method: High-titer retrovirus was generated by co-transfecting 293T cells with retroviral vector and pCL-Eco, which encodes both ecotropic envelope and gag-pol proteins, using an Effectene® transfection kit (Qiagen). Culture supernatant was harvested each day from 24-72 hours after transfection and used either to infect FL5.12 cells or frozen at ^−80° C. for future use. 1-2 million cells were seeded in each well of a 24-well plate and were centrifuged at 2500×g for 1 hour with viral supernatant, 5 μg/ml polybrene, and 0.3 ng/ml interleukin-3 (IL-3). Cells were stored in the incubator for 2 hours. Viral supernatant was replaced with fresh batches, and the spin/incubation process was repeated 2 more times. Infection efficiency was determined 24-48 hours later by flow cytometric analysis of GFP expression.
The murine pro-B cell line FL5.12 is IL-3 dependent; 100% of the cells die by apoptosis after IL-3 withdrawal for 3 days, and >90% of cells can be rescued by expression of Bcl-xL59. […]
10 shRNA-encoding sequences (“books”) were retrieved by PCR, cloned back into pSiren, and sequenced. […] After 15 hours, cells were analyzed by flow cytometry, identifying infected cells by GFP fluorescence and dead cells by propidium iodide (PI) staining. […]

FL5.12 cells [2] = assay: Growth rate of book-infected FL5.12 cells; assay type: cell-based, murine
Method: as §1

primary FRDA fibroblasts [3] = settings: 0.05 mM BSO; Jauslin et al. 2002; cited from earlier work
primary FRDA fibroblasts [4] = assay: Glutathione depletion with BSO: viability of primary FRDA fibroblasts; assay type: cell-based; settings: 1 mM BSO in media with 0.3 mg/ml fully saturated human transferrin; 48 hours; 6-well plate
Method: (§2) Primary FRDA fibroblasts are far more sensitive to oxidative stress than normal control fibroblasts. (Jauslin et al. (Hum Molec Gen 11: 3055, 2002) used L-buthionine (S,R)-sulfoximine (BSO) to block the rate-limiting enzyme in glutathione synthesis, and found a concentration (0.05 mM) at which virtually all primary FRDA fibroblasts lose viability, but more than 90% of normal control fibroblasts retain viability.)
(§3) […] […] By washing the cells, adding back their normal medium, and looking for colony formation, the minimum conditions under which 100% of the cells die were confirmed.

[5] = tested on: normal control fibroblasts; assay: Glutathione depletion with BSO: viability of normal control fibroblasts; assay type: cell-based; settings: 1 mM BSO in media with 0.3 mg/ml fully saturated human transferrin; 48 hours
Method: as §2, §3

[6] = tested on: normal control fibroblasts; settings: 0.05 mM BSO; Jauslin et al. 2002; cited from earlier work
293T cells = assay: Overnight CDDO treatment of 293T cells, to establish an apoptosis assay; assay type: cell-based, human; settings: for adherent cells remaining after treatment: then medium without CDDO
Method: 293T cells (a human, embryonic kidney cell line) were treated overnight (16 hours) with 2, 4, 6, and 8 μM of the synthetic triterpenoid, CDDO.

Compound: 5′-GGGTAGCTACATTTGCATATGTGGATATG-3′ (listed as DNA, chemistry not given here) [Book 1, books 1 and 7 were the same]
- caspase 3 enzymatic activity (caspase 3): decrease
- survival (GFP-positive, PI-negative cells) relative to random book (ctr153) or vector alone (pSiren) (FL5.12 cells [1]): statistically significant improvement in survival
- effects on growth rate (FL5.12 cells [2]): none

Compound: 5′-GTGGATCAGTGTGTTATAGCTCGGGCAGG-3′ (listed as DNA, chemistry not given here) [Book 3]
- caspase 3 enzymatic activity (caspase 3): decrease
- survival (GFP-positive, PI-negative cells) relative to random book (ctr153) or vector alone (pSiren) (FL5.12 cells [1]): statistically significant improvement in survival
- effects on growth rate (FL5.12 cells [2]): none

Compound: CCCCS(=N)(=O)CCC(N)C(=O)O [BSO, L-buthionine (S,R)-sulfoximine]
- primary FRDA fibroblasts losing viability (primary FRDA fibroblasts [3]): virtually all
- viability of FRDA cells (primary FRDA fibroblasts [4]): all the cells in a 6-well plate nonviable
- age- and passage-matched controls remaining viable [5]: majority
- normal control fibroblasts retaining viability [6]: more than 90%

Compound: CC1(C)CC[C@]2(C(=O)O)CC[C@]3(C)[C@H](C(=O)C=C4[C@@]5(C)C=C(C#N)C(=O)C(C)(C)[C@@H]5CC[C@]43C)[C@@H]2C1 [CDDO]
- adherent cells remaining after treatment (293T cells; 2 μM CDDO overnight (16 hours)): some adherent cells
- adherent cells remaining after treatment (293T cells; 4 μM CDDO overnight (16 hours)): no remaining adherent cells
- adherent cells remaining after treatment (293T cells; 6 μM CDDO overnight (16 hours)): no remaining adherent cells
- adherent cells remaining after treatment (293T cells; 8 μM CDDO overnight (16 hours)): no remaining adherent cells
- adherent colonies after post-treatment culture (293T cells; repeat with 4 μM CDDO, five days of post-treatment culture in medium without CDDO): no adherent colonies were evident
